From publication PMC10353390, “Biological and Structural Analyses of New Potent Allosteric Inhibitors of HIV-1 Integrase” (Antimicrobial Agents and Chemotherapy, 2023)

Experiments:
[1] = target: CCD of HIV-1 IN and IBD of LEDGF/p75 (Human immunodeficiency virus type 1 group M subtype B, UniProt P12497); assay: biochemical
Description: The INLAIs were tested for the ability to inhibit the HIV-1 IN-LEDGF/p75 interaction in a homogeneous time-resolved fluorescence (HTRF) assay. Our assays used either full-length IN and LEDGF/p75 proteins or their respective minimally sufficient interaction domains: the CCD of HIV-1 IN and the IBD of LEDGF/p75 (Table 1).
HTRF-based CCD-IBD interaction, IN-LEDGF/p75 interaction and IN multimerization assays were performed as described previously ([12]).

[2] = Cytotoxicity assay in MT4 cells; format: cell-based; settings: human, MT4 cells (proliferating human T-cell line), CellTiter-Glo
Description: Growth inhibition was monitored in a proliferating human T-cell line (MT4) with different concentrations of compounds, using the CellTiter-Glo luminescent reagent (Promega), as previously described ([12]).

[3] = target: T1, HIV-1 IN (Human immunodeficiency virus type 1 group M subtype B, UniProt P12497); assay: HTRF IN multimerization assay; format: biochemical; settings: mean ± SD
T1 construct: made in house
Description: A key property of INLAIs is the ability to promote HIV-1 IN homo-multimerization ([39][–][42]). […] The maximal signal (plateau) in our IN aggregation assay corresponds to the highest HTRF signal increase under saturating INLAI concentration, relative to baseline level. Thus, MUT916, MUT884, MUT871, and MUT872 increased HIV-1 IN aggregation 3.7 to 4.4-fold, while BDM-2, BI-224436, and S-I-82 did so 5 to 6-fold (Table 1).

[4] = system: recombinant NL4-3 viruses with polymorphisms at IN positions 124 and 125; assay: Multiple-round infection of MT4 cells with recombinant NL4-3 viruses polymorphic at IN positions 124 and 125; format: cell-based, HIV-1
Description: Located on the HIV-1 IN CCD dimerization interface, the principal INLAI binding pocket overlaps with a hot spot of amino acid sequence polymorphism involving IN residues 124 and 125 ([16]). To test if the new INLAIs maintained antiviral activity against major polymorphisms, we introduced all major combinations of residues found in circulating HIV-1 strains at positions 124 and 125 into NL4-3 HIV-1 molecular clone. In total, we evaluated 15 such combinations that collectively covered 98% of all HIV-1 clade polymorphisms involving these positions ([48]). To gauge effects on the antiviral activity, we calculated the EC50 fold change (FC) relative to wild type NL4-3 HIV-1 strain that features Thr124 and Thr125 (TT; specific polymorphisms are referred to by a single letter amino acid code).
(§1) MT4 cells growing exponentially at the density of 10^6/mL were infected with HIV-1 strain NL4-3 at a multiplicity of infection (MOI) of 0.001 for 2 h in the presence of different concentrations of compounds, and the CellTiter-Glo luminescent reagent (Promega) was used to quantify cell viability as described previously ([12]).

[5] = system: HXB2 HIV-1 strain; assay: Multiple-round infection assay in MT4 cells, HXB2; format: cell-based; settings: Human immunodeficiency virus 1, HXB2; multiple-round infection, MT4 cells; mean ± SD, n > 5; read-out: EC50 HXB2
Description: Antiretroviral activity of BDM-2 and its analogs was first evaluated in lymphoblastoid cell line MT4 and in primary human T lymphocytes using NL4-3 and HXB2 laboratory HIV-1 isolates.
as §1

[6] = target: HIV-1 IN-LEDGF/p75 interaction (Human immunodeficiency virus type 1 group M subtype B, UniProt P12497); assay: biochemical
[7] = system: primary HIV-1 isolates with polymorphisms at IN positions 124 and 125; assay: Multiple-round infection of MT4 cells with primary HIV-1 isolates polymorphic at IN positions 124 and 125; format: cell-based; settings: primary isolate
Description: Next, we evaluated the potency of the BDM-2 series of INLAIs against several primary HIV-1 isolates with polymorphisms at IN positions 124 and 125.
as §1

[8] = system: NL4-3 HIV-1 with INLAI-selected IN single point mutations; format: cell-based
[9] = system: HIV-1 strains resistant to INSTIs, NRTIs, NNRTIs or PIs; format: cell-based
Description: To this end, we used both recombinant viruses constructed by introducing described drug resistance mutations into NL4-3 HIV-1 clone as well as drug-resistant clinical HIV-1 isolates.
as §1

[10] = system: NL4-3 HIV-1 strain; assay: Multiple-round infection assay in MT4 cells, NL4-3; format: cell-based; settings: MT4 cells
[11] = system: VSV-G-pseudotyped NL4-3Δenv-luc; assay: microbe, parasite or virus in culture; format: cell-based, HIV-1
[12] = INSTI-resistant, NL4-3 background

SMILES: Cc1ccc(C2CC2)c(-c2ccc3c(c2)CCCO3)c1[C@H](OC1CC1)C(=O)O [MUT872]
- IC50 [1]: 420 ± 70 nM
- CC50 [2]: 139000 ± 29000 nM
- AC50 ([3]; concentration for 50% maximum activation of multimerization): 43 ± 11 nM
- IN multimerization Plateau ([3]; maximum multimerization reached versus baseline): 440 ± 48%
- Fold change in EC50 relative to parental NL4-3, AA ([4]; recombinant NL4-3, IN 124/125 AA): 1
- Fold change in EC50 relative to parental NL4-3, AM ([4]; recombinant NL4-3, IN 124/125 AM): 0.3
- Fold change in EC50 relative to parental NL4-3, AT ([4]; recombinant NL4-3, IN 124/125 AT): 1
- Fold change in EC50 relative to parental NL4-3, AV ([4]; recombinant NL4-3, IN 124/125 AV): 0.5
- Fold change in EC50 relative to parental NL4-3, GA ([4]; recombinant NL4-3, IN 124/125 GA): 2
- Fold change in EC50 relative to parental NL4-3, GT ([4]; recombinant NL4-3, IN 124/125 GT): 2
- Fold change in EC50 relative to parental NL4-3, NA ([4]; recombinant NL4-3, IN 124/125 NA): 1
- Fold change in EC50 relative to parental NL4-3, NT ([4]; recombinant NL4-3, IN 124/125 NT): 1
- Fold change in EC50 relative to parental NL4-3, NV ([4]; recombinant NL4-3, IN 124/125 NV): 1
- Fold change in EC50 relative to parental NL4-3, SA ([4]; recombinant NL4-3, IN 124/125 SA): 1
- Fold change in EC50 relative to parental NL4-3, ST ([4]; recombinant NL4-3, IN 124/125 ST): 1
- Fold change in EC50 relative to parental NL4-3, TA ([4]; recombinant NL4-3, IN 124/125 TA): 1
- Fold change in EC50 relative to parental NL4-3, TM ([4]; recombinant NL4-3, IN 124/125 TM): 0.2
- Fold change in EC50 relative to parental NL4-3, TV ([4]; recombinant NL4-3, IN 124/125 TV): 1
- EC50 [5]: 18 ± 1 nM
- IC50 [6]: 170 ± 20 nM
- Fold change in EC50 relative to parental NL4-3, CAM2BBY (CRF02) ([7]; IN 124/125 AA): 1
- Fold change in EC50 relative to parental NL4-3, E0836M4 (D) ([7]; IN 124/125 AA): 1
- Fold change in EC50 relative to parental NL4-3, KER2008 (A) ([7]; IN 124/125 AA): 1
- Fold change in EC50 relative to parental NL4-3, NP1525 (CRF01) ([7]; IN 124/125 AA): 1
- Fold change in EC50 relative to parental NL4-3, NP1695 (CRF02) ([7]; IN 124/125 AA): 1
- Fold change in EC50 relative to parental NL4-3, TZA125 (C) ([7]; IN 124/125 AA): 0.4
- Fold change in EC50 relative to parental NL4-3, KSM4030 (A) ([7]; IN 124/125 GA): 2
- Fold change in EC50 relative to parental NL4-3, vGA (C) ([7]; IN 124/125 GA): 4
- Fold change in EC50 relative to parental NL4-3, 99ET14 (C) ([7]; IN 124/125 NA): 1
- Fold change in EC50 relative to parental NL4-3, NP1538 (B) ([7]; IN 124/125 NA): 2
- Fold change in EC50 relative to parental NL4-3, vNA_1 (B) ([7]; IN 124/125 NA): 1
- Fold change in EC50 relative to parental NL4-3, vNA_2 (CRF02) ([7]; IN 124/125 NA): 2
- Fold change in EC50 relative to parental NL4-3, vNV (B) ([7]; IN 124/125 NV): 1
- Fold change in EC50 relative to parental NL4-3, vSA_1 (B) ([7]; IN 124/125 SA): 2
- Fold change in EC50 relative to parental NL4-3, vSA_2 (CRF02) ([7]; IN 124/125 SA): 2
- Fold change in EC50 relative to parental NL4-3, vTA_1 (B) ([7]; IN 124/125 TA): 2
- Fold change in EC50 relative to parental NL4-3, vTA_2 (CRF02) ([7]; IN 124/125 TA): 2
- EC50 fold change compared to wild type NL4-3, A128T [8]: 7
- EC50 fold change compared to wild type NL4-3, H171Q [8]: 1
- EC50 fold change compared to wild type NL4-3, N222K [8]: 2
- EC50 fold change compared to wild type NL4-3, T174I [8]: 15
- EC50 fold change compared to wild type NL4-3, Y99H [8]: 2
- Fold change in EC50 relative to NL4-3, E92Q [9, 12]: 1
- Fold change in EC50 relative to NL4-3, G140S [9, 12]: 1
- Fold change in EC50 relative to NL4-3, G140S/Q148H [9, 12]: 1
- Fold change in EC50 relative to NL4-3, N155H [9, 12]: 1
- Fold change in EC50 relative to NL4-3, Q148H [9, 12]: 1
- Fold change in EC50 relative to NL4-3, Y143R [9, 12]: 0.5
- Fold change in EC50 relative to NL4-3, NLAY351717 ([9]; NRTI-resistant clone): 1
- Fold change in EC50 relative to NL4-3, NLAY351753 ([9]; NRTI/NNRTI-resistant clone): 1
- Fold change in EC50 relative to NL4-3, K103N/Y181C ([9]; NRTI/NNRTIs group, NL4-3 background): 1
- Fold change in EC50 relative to NL4-3, ARP-4595 ([9]; PI-resistant virus): 1
- Fold change in EC50 relative to NL4-3, ARP-4596 ([9]; PI-resistant virus): 1
- Fold change in EC50 relative to NL4-3, ARP-11801 ([9]; PI-resistant virus): 2
- Fold change in EC50 relative to NL4-3, ARP-11803 ([9]; PI-resistant virus): 1
- Fold change in EC50 relative to NL4-3, ARP-11807 ([9]; PI-resistant virus): 1
- Fold change in EC50 relative to NL4-3, ARP-11808 ([9]; PI-resistant virus): 2
- EC90 ([10]; Human immunodeficiency virus 1, NL43, multiple-round infection, from dose response curves, read-out: EC90 NL4-3): 61 ± 19 nM
- EC50 ([10]; Human immunodeficiency virus 1, NL43, multiple-round infection, mean ± SD, n > 5, read-out: EC50 NL4-3): 45 ± 12 nM
- Selectivity index CC50/EC50 NL4-3 [10]: 3,088
- EC50 ratio (single/multiple-round infection) [11]: 196
- EC50 ([11]; Human immunodeficiency virus 1, NL43, MT4, read-out: EC50 in single-round infection): 8800 ± 300 nM
